Data on one compound can be found in US20060069151A1, “Novel use of lycopene” (priority 2002, published 2006).

The test system of this assay is androgen signalling. In words: androgen target gene expression in androgen sensitive target organ tissue. It counts as in vivo. To be noted: after administration; no method, species or dose described.

Molecules are shown by their SMILES.

With `CC(C)=CCC/C(C)=C/C=C/C(C)=C/C=C/C(C)=C/C=C/C=C(C)/C=C/C=C(C)/C=C/C=C(\C)CCC=C(C)C` [lycopene], the “androgen target gene expression in androgen sensitive target organ tissue, as the endpoint and result of androgen signalling” value was “significantly reduced”.
